The text below walks through data of patent US20160051570A1, “TREATMENT OF RHEUMATOID ARTHRITIS” (Ganderland and Associates, Inc., priority 2014, published 2016).

This assay deals with RA. Put plainly: Previous drug treatment of the same RA patients (patient history). It is filed as in vivo, human. The settings on record: drug taken before the composition.

Take `Cc1oncc1C(=O)Nc1ccc(C(F)(F)F)cc1` [arava, leflunomide]: the “effect in remission of the disease” value was “without any real effect”.
`CN(Cc1cnc2nc(N)nc(N)c2n1)c1ccc(C(=O)N[C@@H](CCC(=O)O)C(=O)O)cc1` [methotrexate]: the “effect in remission of the disease” value is “without any real effect”.
`C[C@]12C=CC(=O)C=C1CC[C@@H]1[C@@H]2C(=O)C[C@@]2(C)[C@H]1CC[C@]2(O)C(=O)CO` [prednisone]: the “effect in remission of the disease” value was “without any real effect”.
As to ENBREL®, the “effect in remission of the disease” value is recorded as “without any real effect”.
